Measurements published in patent US5536623A, “Method of producing highly water-soluble cyclodextrin complex” (Takeda Chemical Industries, Ltd., priority 1992, dated 1996).
Like-named read-outs stand apart in the source and are kept apart here.

Columns and labels:
[1] = format: physicochemical; settings: water
Experimental: (§1) Column: ODS, YMC-Pack A-312 (Yamamura Chemical Laboratories)
(§2) Mobil phase: water-acetonitrile (1:1 v/v)
(§3) Detector: Ultra violet detector (wavelength: 210 nm)
To a 5 ml aqueous solution containing 500 mg of glucosyl-β-cyclodextrin (hereinafter abbreviated G1[CyD) was added 250 mg of TNP-470, followed by stirring at 25° C. for 8 hours to obtain a solution. The resulting aqueous solution was filtered and lyophilized in accordance with the standard method to yield a powder. To the entire amount of the powder thus obtained, 5 ml of water was added to yield a uniform aqueous solution. Separately, in accordance With the conventional method, 100 mg of G1βCyD was dissolved in 5 ml of water; 250 mg of TNP-470 was added to this solution, followed by stirring at 25° C. for 8 hours. Then, the solution was filtered. The above uniform solution and the filtered solution were assayed for TNP-470 by HPLC method as described in Comparative Example 1. Also, the saturation solubility of TNP-470 alone was determined by HPLC.

[2] = Storage stability at 40° C., TNP-470 quantified by HPLC (Example 6); format: physicochemical; settings: powder, 730 h
Experimental: as §1, §2, §3
To a 5 ml aqueous solution containing 726 mg of maltosyl-β-cyclodextrin was added 100 mg of TNP-470, followed by stirring at 25° C. for 180 minutes to yield a solution. This aqueous solution was filtered, and 5 ml of the filtrate was placed in a vial and lyophilized to yield a powder. The stability of this powder and that of TNP-470 alone were compared after storage at 40° C. for i month. TNP-470 was quantified by HPLC.

[3] = format: physicochemical; settings: water; remark: listed apart in the source
Experimental: To a 5 ml aqueous solution containing 1000 mg of maltosyl-β-cyclodextrin (hereinafter abbreviated G2βCyD) was added 250 mg of 6-O-(N-chloroacetylcarbamoyl) fumagillol (hereinafter abbreviated TNP-470), followed by stirring at 25° C. for 8 hours to obtain a solution. The undissolved portion of TNP-470 was filtered out, and the filtrate was placed in a vial and lyophilized in accordance with a conventional method to yield a powder. To the entire amount of the powder thus obtained, 5 ml of water was added to yield a uniform aqueous solution. Separately, in accordance with the conventional method, 110 mg of G2βCyD was dissolved in 5 ml of water; 250 mg of TNP-470 was added to this solution, followed by stirring at 25° C. for 8 hours. Then, the solution was filtered. The above uniform solution and the filtered solution were assayed for TNP-470 by high performance liquid chromatography (HPLC). Also, the saturation solubility of TNP-470 alone was determined by HPLC.
as §1, §2, §3

CO[C@@H]1[C@H](OC(=O)NC(=O)CCl)CC[C@]2(CO2)[C@H]1[C@@]1(C)O[C@@H]1CC=C(C)C [TNP-470, 6-O-(N-chloroacetylcarbamoyl) fumagillol]
Comparison of Solubility (TNP-470) [1]: 1900 µg/mL | Stability, Percent residence (TNP-470) [2]: 68% | Comparison of Solubility (TNP-470) [3]: 1900 µg/mL
